Measured values from PubChem BioAssay (NCI).
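Protocol summary: plate cells (96-well), add compound at 5 concentrations, incubate 48 h, interpolate endpoints linearly. GI50 marks 50% less growth. TGI: concentration producing complete growth inhibition.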

Legend:
Assay in all cases: inhibition of tumour cell growth, NCI panel, 48 h
MDA-N = system: MDA-N
NCI-H23 lung = system: NCI-H23 lung
MDA-MB-435 = system: MDA-MB-435
COLO 205 colon = system: COLO 205 colon
UACC-62 melanoma = system: UACC-62 melanoma
SF-268 CNS = system: SF-268 CNS
SR leukemia = system: SR leukemia
ACHN renal = system: ACHN renal
HCT-15 colon = system: HCT-15 colon
U251 CNS = system: U251 CNS

| Structure (SMILES) | TGI (MDA-N) [µM] | TGI (NCI-H23 lung) [µM] | TGI (MDA-MB-435) [µM] | TGI (COLO 205 colon) [µM] | TGI (UACC-62 melanoma) [µM] | TGI (SF-268 CNS) [µM] | TGI (SR leukemia) [µM] | TGI (ACHN renal) [µM] | TGI (HCT-15 colon) [µM] | TGI (U251 CNS) [µM] | GI50 (NCI-H23 lung) [µM] | GI50 (MDA-MB-435) [µM] | GI50 (COLO 205 colon) [µM] | GI50 (UACC-62 melanoma) [µM] | GI50 (SF-268 CNS) [µM] | GI50 (SR leukemia) [µM] | GI50 (ACHN renal) [µM] | GI50 (HCT-15 colon) [µM] | GI50 (U251 CNS) [µM] |
| --- | --- | --- | --- | --- | --- | --- | --- | --- | --- | --- | --- | --- | --- | --- | --- | --- | --- | --- | --- |
| CN(C)C(=O)OC1=CC2CCC(C1)N2C (centres undefined) | > 100 | > 100 | > 100 | > 100 | > 100 | > 100 | > 100 | > 100 | > 100 | > 100 |  |  |  |  |  |  |  |  |  |
| COC(=O)C1CC23C4=C(CCC41)CCC1CN4CC(C)C(CC(OC(C)=O)C12COC(C)=O)C43O (centres undefined) | > 100 | > 100 | > 100 | > 100 | > 100 | > 100 |  | > 100 | > 100 | > 100 |  |  |  |  |  |  |  |  |  |
| O/C(=C\c1nc2ccccc2nc1/C=C(\O)c1ccc(F)cc1)c1ccc(F)cc1 | > 100 | > 100 | > 100 | > 100 | > 100 | > 100 | > 100 | > 100 | > 100 | > 100 |  |  |  |  |  |  |  |  |  |
| Cn1c2[n+](c3nc(N)[nH]c(=O)c31)C1OC(C2)C(O)C1O (centres undefined) |  | > 100 |  | > 100 | > 100 | > 100 | > 100 | > 100 |  | > 100 |  |  |  |  |  |  |  |  |  |
| Cc1ccc2nc(-c3ccc(NC(=O)c4ccc(N)cc4)c(S(=O)(=O)O)c3)sc2c1 | > 100 | > 100 | > 100 | > 100 | > 100 | > 100 |  | > 100 | > 100 | > 100 |  |  |  |  |  |  |  |  |  |
| O=C(Nc1ccc(-n2ccc3c(NC(=O)c4ccccc4)nccc32)cc1)Nc1cccc(C(F)(F)F)c1 |  | 17.6 | 21.3 | 19.6 | 20.4 | 30.2 | 4.28 | 19.6 | 6.55 | 10.8 | 3.28 | 4.57 | 6.19 | 7.36 | 10.5 | 1.49 | 5.72 | 1.03 | 2.04 |
| CCOCC(=O)N(C)c1cccc2c3c(n(C)c12)CCCCC3 |  | > 100 |  | > 100 | > 100 | > 100 |  |  | > 100 | > 100 |  |  |  |  |  |  |  |  |  |
| CS(C)(=O)=Nn1c(=O)n2n(c1=O)C1c3ccccc3C2c2ccccc21 | > 100 | > 100 | > 100 | > 100 | > 100 |  | > 100 | > 100 | > 100 | > 100 |  |  |  |  |  |  |  |  |  |
| N#Cc1ccccc1C#C/C=C\C#Cc1ccccc1N |  | 29.2 | 3.21 | > 100 | > 33.6 | > 56.2 | 2.52 | > 38.3 |  | > 42.5 | 2.88 | 1.34 | 4.8 | 3.03 | 9.12 | 0.745 | 7.88 | 3.85 | 4.16 |
| O=C1/C(=C/c2[nH]ncc2-c2ccc(Cl)cc2)C(=O)N(c2ccccc2)C1c1ccccc1 (centres undefined) | 36.9 | 28.8 | 35.5 | 32.8 | 27.8 | 40.9 | 30 | 85.2 | 36.9 | 50.2 |  |  |  |  |  |  |  |  |  |
| O=S(=O)(O)c1ccc2c(N=Nc3ccc(N=Nc4ccccc4)cc3)c(O)c(S(=O)(=O)O)cc2c1 | > 100 | > 100 | > 100 | > 100 | > 100 | > 100 | > 100 | > 100 | > 100 | > 100 |  |  |  |  |  |  |  |  |  |
| O=C1C2Cc3c(n(C(=O)c4ccccc4)c4ccccc34)CC2C(=O)N1c1ccc(Nc2ccc(N3C(=O)C4Cc5c(n(C(=O)c6ccccc6)c6ccccc56)CC4C3=O)cc2)cc1 (centres undefined) | > 100 | > 100 | > 100 | > 100 | > 100 | > 100 | > 100 | > 100 | > 100 | > 100 |  |  |  |  |  |  |  |  |  |
| Cc1cc(C)c2c(=O)n(CC(O)CN3CCN(CCOCCO)CC3)sc2n1 (centres undefined) | 29.2 | 30.3 | 32.8 | 34.1 | 32.7 | 39.8 | > 100 | 35 | > 100 | 36.3 |  |  |  |  |  |  |  |  |  |
| CC1=C[C@@H](C)C[C@]2(C)CC[C@H](O2)[C@]23CC[C@](CO)(C[C@H](O2)[C@@H]2O[C@@](C)(CC2=O)[C@@H](O)[C@H]2CC[C@@]4(CCC[C@@H](O4)[C@H](C)C(=O)O[C@H]4C[C@H]([C@]5(O)OCC[C@H](C)[C@@H]5O)O[C@H]4C=C1)O2)O3 | > 10 |  | > 10 | 0.00377 | > 9.63 | 0.0252 | > 10 | > 10 | > 10 | 0.438 |  |  |  |  |  |  |  |  |  |
| Nc1nnc(CCC(=O)Nc2cc(Cl)ccc2Cl)n1N |  | > 100 |  | > 100 | > 100 | > 100 | > 100 | > 100 | > 100 | > 100 |  |  |  |  |  |  |  |  |  |
| Nc1cc(S(=O)(=O)O)cc2ccc(S(=O)(=O)O)cc12 | > 100 | > 100 | > 100 | > 100 | > 100 | > 100 | > 100 | > 100 | > 100 | > 100 |  |  |  |  |  |  |  |  |  |
| O=C(/C=C1\N=C(c2ccccc2)N(c2nc3c(Cl)cc(Cl)cc3s2)C1=O)/C=C/c1ccccc1 | > 100 | > 100 | > 100 | > 100 | > 100 | > 100 |  | > 100 | > 100 | > 100 |  |  |  |  |  |  |  |  |  |
| COc1cccc(/C=N/[N-]C(N)=O)c1[O-].[Ni+2].[OH3+] |  | 0.735 |  | 0.291 | 1.35 | 0.945 | 2.64 | 2.07 | 1.17 | 0.816 |  |  |  |  |  |  |  |  |  |
